Results as given in US20130295185A1, “COMPOUNDS AND METHODS FOR INDUCING APOPTOSIS IN CANCER CELLS USING A BH3 ALPHA-HELICAL MIMETIC” (H. Lee Moffitt Cancer Center and Research Institute, Inc., priority 2011, published 2013).

Experiments:
A549 cells = assay: BH3-M6 and CEP-1612 alone or in combination in A549 cells (MTT, TUNEL, PARP cleavage); assay type: cell-based, human
Method: FIG. 7 is a series of images illustrating BH3-M6 sensitizes A549 cells to the proteasome inhibitor CEP-1612 to induce apoptosis. A549 cells were treated with the indicated concentrations of either drug alone or in combination and then processed for various assays as described in EXPERIMENTAL PROCEDURES. (A) Cell viability as measured by MTT assay after 72 h of treatment, error bars indicate standard deviations of triplicates. (B) apoptosis as determined by TUNEL assay after 48 h of treatment. (C) PARP cleavage after 24 hours of drug treatment.
Release of cytochrome c from isolated mitochondria was measured as described by Takahashi et al. (Takahashi, Y., Karbowski, M., Yamaguchi, H., Kazi, A., Wu, J., Sebti, S. M., Youle, R. J., and Wang, H. G. (2005) Mol Cell Biol 25, 9369-9382) Cell-free caspase-3/-7 activity and the extent of PARP cleavage was determined as described previously. (Kazi, A., Smith, D. M., Zhong, Q., and Dou, Q. P. (2002) Mol Pharmacol 62, 765-771) MTT (3-(4,5-dimethylthiazol-2-yl)-2,5-diphenyltetrazolium bromide) and TUNEL assays were performed according to Kazi et al., both of which are incorporated herein by reference. (Kazi, A., Lawrence, H., Guida, W. C., McLaughlin, M. L., Springett, G. M., Berndt, N., Yip, R. M. L., and Sebti, S. M. (2009) Cell Cycle 8, 1940-1951)
To determine whether BH3-M6 sensitizes cells to apoptosis induced by other stimuli, the inventors treated A549 cells with BH3-M6 and CEP-1612 (Sun, J., Nam, S., Lee, C. S., Li, B., Coppola, D., Hamilton, A. D., Dou, Q. P., and Sebti, S. M. (2001) Cancer Res 61, 1280-1284), either alone or in combination. BH3-M6 and CEP-1612 alone had little effect on cell viability (about 20% and about 28%, respectively) (FIG. 7A) and apoptosis (about 5% and about 8%, respectively) (FIG. 7B). […] The results from FIG. 7C were obtained after about 24 hours of drug treatment, whereas those from FIG. 5C were obtained after about 48 hours of drug treatment.

[1] = test system: wild-type and Bax/Bak-deficient fibroblasts; conditions: cited from earlier work
Mcl-1 and Bfl-1 = conditions: cited from earlier work
[2] = test system: BH3 binding groove of Bcl-2, Bcl-XL, and Bcl-w; conditions: cited from earlier work

SMILES: CC(C)C[C@@H](C=O)NC(=O)[C@H](CCCN=C(N)N[N+](=O)[O-])NC(=O)C(CCCCCCCCN1C(=O)c2ccccc2C1=O)C1CCCC1 (stereo partly drawn) [CEP-1612]
- inhibition of cell viability (A549 cells; A549, MTT, 72 h): about 28%
- induction of apoptosis (A549 cells; A549, TUNEL, 48 h): about 8%
- PARP cleavage (A549 cells; A549, immunoblot, about 24 hours): but not either drug alone

SMILES: CN(C)CC[C@H](CSc1ccccc1)Nc1ccc(S(=O)(=O)NC(=O)c2ccc(N3CCN(Cc4ccccc4-c4ccc(Cl)cc4)CC3)cc2)cc1[N+](=O)[O-] [ABT-737]
- killing of wild-type vs Bax/Bak-deficient cells [1]: kills only wild-type, but not Bax/Bak-deficient cells
- binding to Mcl-1 and Bfl-1 (Mcl-1 and Bfl-1): only binds weakly
- affinity for BH3 binding groove of Bcl-2, Bcl-XL, and Bcl-w [2]: high affinity
